Where “and” joins values, the source holds several entries; their conditions need not be identical. Identical values can stand only once. Toxic doses and inconclusive results are not listed. Cut-off read from the data, not from the text of the source: active = T/C of 150% or more; inactive = T/C below 125%.
System: L1210 leukemia ip in BDF1 mice, survival T/C
Test: NCI In Vivo Anticancer Drug Screen. Data for tumor model L1210 Leukemia (intraperitoneal) in B6D2F1 (BDF1) mice
Conditions: endpoint: mean survival time, higher = longer survival
Summary of the method: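 Transplanted-tumor mice were given test agent; controls received vehicle only. Survival readings from the two groups were divided (treated over control).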

[1] = dose: 100.0 mg/kg/injection, schedule: Q04DX003 (ip), vehicle: saline with Tween-80
[2] = dose: 200.0 mg/kg/injection, schedule: Q04DX003 (ip), vehicle: saline with Tween-80
[3] = dose: 400.0 mg/kg/injection, schedule: Q04DX003 (ip), vehicle: saline with Tween-80
[4] = dose: 50.0 mg/kg/injection, schedule: Q01DX009 (ip), vehicle: saline with Tween-80
[5] = dose: 100.0 mg/kg/injection, schedule: Q01DX009 (ip), vehicle: saline with Tween-80
[6] = dose: 200.0 mg/kg/injection, schedule: Q01DX009 (ip), vehicle: saline with Tween-80

Measured: T/C

CCCCCCCCCCCCCC[n+]1ccccc1
inactive: dose: 0.25 mg/kg/injection, schedule: Q04DX003 (ip), vehicle: saline 96 % of control | dose: 0.5 mg/kg/injection, schedule: Q01DX001 (ip), vehicle: saline 97 % of control | dose: 0.5 mg/kg/injection, schedule: Q04DX003 (ip), vehicle: saline 94 % of control | dose: 1.0 mg/kg/injection, schedule: Q01DX001 (ip), vehicle: saline 105 % of control | dose: 1.0 mg/kg/injection, schedule: Q04DX003 (ip), vehicle: saline 96 % of control | dose: 2.0 mg/kg/injection, schedule: Q01DX001 (ip), vehicle: saline 112 % of control | dose: 2.0 mg/kg/injection, schedule: Q04DX003 (ip), vehicle: saline 96 % of control | dose: 4.0 mg/kg/injection, schedule: Q04DX003 (ip), vehicle: saline 109 % of control | dose: 62.5 micrograms/kg/injection, schedule: Q01DX009 (ip), vehicle: saline 119 % of control | dose: 125.0 micrograms/kg/injection, schedule: Q01DX009 (ip), vehicle: saline 100 % of control | dose: 250.0 micrograms/kg/injection, schedule: Q01DX009 (ip), vehicle: saline 113 % of control | dose: 500.0 micrograms/kg/injection, schedule: Q01DX009 (ip), vehicle: saline 105 % of control | dose: 1000.0 micrograms/kg/injection, schedule: Q01DX009 (ip), vehicle: saline 110 % of control

CCN(C(=S)c1ccc(OC)cc1)c1cccc(C)c1
inactive: dose: 75.0 mg/kg/injection, schedule: Q04DX003 (ip), vehicle: Klucel (hydroxypropylcellulose) (HPC) 94 % of control | dose: 100.0 mg/kg/injection, schedule: Q01DX001 (ip), vehicle: Klucel (hydroxypropylcellulose) (HPC) 103 % of control | dose: 150.0 mg/kg/injection, schedule: Q04DX003 (ip), vehicle: Klucel (hydroxypropylcellulose) (HPC) 111 % of control | dose: 200.0 mg/kg/injection, schedule: Q01DX001 (ip), vehicle: Klucel (hydroxypropylcellulose) (HPC) 97 % of control | dose: 300.0 mg/kg/injection, schedule: Q04DX003 (ip), vehicle: Klucel (hydroxypropylcellulose) (HPC) 100 % of control | dose: 400.0 mg/kg/injection, schedule: Q01DX001 (ip), vehicle: Klucel (hydroxypropylcellulose) (HPC) 96 % of control

Cc1ccc(C(=O)CCCCl)cc1C
inactive: [1] 95 % of control | [2] 89 % of control | [3] 88 % of control

CC(=O)OCC(C)(C)COS(=O)(=O)c1ccc(Br)cc1
inactive: [4] 100 % of control | [5] 89 % of control | [6] 89 % of control

CC(=N)c1c(O)cc(C)oc1=O
inactive: [1] 108 % of control | [2] 101 % of control | [3] 92 % of control

CCOC(=S)Nc1ccccc1[N+](=O)[O-]
inactive: dose: 100.0 mg/kg/injection, schedule: Q04DX002 (ip), vehicle: gum acacia 102 % of control | dose: 200.0 mg/kg/injection, schedule: Q04DX002 (ip), vehicle: gum acacia 105 % of control | dose: 400.0 mg/kg/injection, schedule: Q04DX002 (ip), vehicle: gum acacia 102 % of control

C=C(C(=O)c1ccccc1)C(NC(C)(C)C)c1ccccc1 (stereo not given)
inactive: dose: 5.0 mg/kg/injection, schedule: Q01DX001 (ip), vehicle: saline 95 % of control | dose: 10.0 mg/kg/injection, schedule: Q01DX001 (ip), vehicle: saline 98 % of control | dose: 20.0 mg/kg/injection, schedule: Q01DX001 (ip), vehicle: saline 95 % of control

Nc1ccc(Cl)nn1
inactive: dose: 25.0 mg/kg/injection, schedule: Q04DX002 (ip), vehicle: Klucel (hydroxypropylcellulose) (HPC) 97 % of control | dose: 50.0 mg/kg/injection, schedule: Q04DX002 (ip), vehicle: Klucel (hydroxypropylcellulose) (HPC) 97 % of control | dose: 100.0 mg/kg/injection, schedule: Q04DX002 (ip), vehicle: Klucel (hydroxypropylcellulose) (HPC) 100 % of control

Clc1cccc(N=C/C=C/c2ccccc2)c1
inactive: dose: 100.0 mg/kg/injection, schedule: Q01DX001 (ip), vehicle: carboxymethylcellulose (CMC) 105 % of control | dose: 100.0 mg/kg/injection, schedule: Q01DX009 (ip), vehicle: carboxymethylcellulose (CMC) 96 % of control and 100 % of control | dose: 100.0 mg/kg/injection, schedule: Q04DX002 (ip), vehicle: carboxymethylcellulose (CMC) 94 % of control and 100 % of control | dose: 100.0 mg/kg/injection, schedule: Q04DX003 (ip), vehicle: carboxymethylcellulose (CMC) 92 % of control | dose: 200.0 mg/kg/injection, schedule: Q01DX001 (ip), vehicle: carboxymethylcellulose (CMC) 96 % of control | dose: 200.0 mg/kg/injection, schedule: Q01DX009 (ip), vehicle: carboxymethylcellulose (CMC) 107 % of control and 92 % of control | dose: 200.0 mg/kg/injection, schedule: Q04DX002 (ip), vehicle: carboxymethylcellulose (CMC) 95 % of control and 97 % of control | dose: 200.0 mg/kg/injection, schedule: Q04DX003 (ip), vehicle: carboxymethylcellulose (CMC) 96 % of control | dose: 400.0 mg/kg/injection, schedule: Q01DX001 (ip), vehicle: carboxymethylcellulose (CMC) 102 % of control | dose: 400.0 mg/kg/injection, schedule: Q01DX009 (ip), vehicle: carboxymethylcellulose (CMC) 103 % of control | dose: 400.0 mg/kg/injection, schedule: Q04DX002 (ip), vehicle: carboxymethylcellulose (CMC) 94 % of control and 98 % of control | dose: 400.0 mg/kg/injection, schedule: Q04DX003 (ip), vehicle: carboxymethylcellulose (CMC) 107 % of control

Cc1nc(Cl)c(C#N)c(C(F)(F)F)c1N
inactive: dose: 100.0 mg/kg/injection, schedule: Q01DX Z (ip), vehicle: carboxymethylcellulose (CMC) 95 % of control

O=C(Nc1ccc(Cl)c(Cl)c1)Nc1ccc(Oc2ccc(Cl)cc2Cl)cc1S(=O)(=O)O
inactive: dose: 100.0 mg/kg/injection, schedule: Q04DX003 (ip), vehicle: alcohol 100 % of control | dose: 200.0 mg/kg/injection, schedule: Q04DX003 (ip), vehicle: alcohol 103 % of control

c1ccc(C2c3ccccc3C(c3ccccc3)(c3ccccc3)c3ccccc32)cc1
inactive: dose: 100.0 mg/kg/injection, schedule: Q01DX001 (ip), vehicle: other 91 % of control | dose: 200.0 mg/kg/injection, schedule: Q01DX001 (ip), vehicle: other 91 % of control | dose: 400.0 mg/kg/injection, schedule: Q01DX001 (ip), vehicle: other 91 % of control

O=C(NC(=S)Nc1ccc(O)cc1)c1cccc([N+](=O)[O-])c1
inactive: dose: 100.0 mg/kg/injection, schedule: Q01DX001 (ip), vehicle: saline with Tween-80 87 % of control | [5] 99 % of control and 103 % of control | dose: 100.0 mg/kg/injection, schedule: Q04DX002 (ip), vehicle: saline with Tween-80 101 % of control | [1] 94 % of control | dose: 200.0 mg/kg/injection, schedule: Q01DX001 (ip), vehicle: saline with Tween-80 91 % of control | [6] 92 % of control and 100 % of control | dose: 200.0 mg/kg/injection, schedule: Q04DX002 (ip), vehicle: saline with Tween-80 97 % of control | [2] 96 % of control | dose: 400.0 mg/kg/injection, schedule: Q01DX001 (ip), vehicle: saline with Tween-80 101 % of control | dose: 400.0 mg/kg/injection, schedule: Q01DX009 (ip), vehicle: saline with Tween-80 92 % of control and 100 % of control | dose: 400.0 mg/kg/injection, schedule: Q04DX002 (ip), vehicle: saline with Tween-80 90 % of control | [3] 95 % of control

O=C1c2cccnc2C(=O)N1Cc1ccccc1
inactive: dose: 100.0 mg/kg/injection, schedule: Q01DX009 (ip), vehicle: saline sonified 103 % of control | dose: 100.0 mg/kg/injection, schedule: Q04DX003 (ip), vehicle: Klucel (hydroxypropylcellulose) (HPC) 107 % of control | dose: 200.0 mg/kg/injection, schedule: Q01DX009 (ip), vehicle: saline sonified 96 % of control | dose: 200.0 mg/kg/injection, schedule: Q04DX003 (ip), vehicle: Klucel (hydroxypropylcellulose) (HPC) 103 % of control | dose: 400.0 mg/kg/injection, schedule: Q01DX009 (ip), vehicle: saline sonified 102 % of control | dose: 400.0 mg/kg/injection, schedule: Q04DX003 (ip), vehicle: Klucel (hydroxypropylcellulose) (HPC) 102 % of control

Nc1c2ccccc2cc2ccccc12
inactive: [4] 91 % of control | [5] 97 % of control | [1] 96 % of control and 112 % of control | [6] 110 % of control | [2] 91 % of control and 97 % of control | [3] 88 % of control

O=c1c(O)c(-c2ccc(Cl)cc2)oc2ccccc12
inactive: dose: 50.0 mg/kg/injection, schedule: Q01DX001 (ip), vehicle: saline 87 % of control | dose: 100.0 mg/kg/injection, schedule: Q01DX001 (ip), vehicle: saline 93 % of control | dose: 200.0 mg/kg/injection, schedule: Q01DX001 (ip), vehicle: saline 93 % of control | dose: 400.0 mg/kg/injection, schedule: Q01DX001 (ip), vehicle: saline 98 % of control

O=C1OC(=O)c2cscc21
inactive: [1] 88 % of control | [2] 94 % of control

— PubChem BioAssay AID248 (DTP/NCI, 2004)
